Experimental data as given in patent publication US20050228046A1, “Alkylamine as an antimicrobial agent in ophthalmic compositions” (ADVANCED MEDICAL OPTICS, INC., priority 2004, published 2005).

Key:
[1] = tested on: Candida albicans, ATCC 10231; assay: Microbiology challenge test, log drop; assay type: cell-based
Description: (§1) The following is the procedure by which various antimicrobial agents and solutions are tested for their ability to reduce microbial loads over short periods of time, typically 24 hours and less. The procedure is a basic microbiology challenge test, which involves the inoculation of test product aliquots with a known number of viable cells of several test organisms, and assay for the survivors at various time intervals. The results are used to calculate log drops at soak times and construct kill-curves (graphs of survivors versus time) if desired.
(§2) Candida albicans, ATCC 10231, is one of five organisms specified per FDA and ISO/CLI tests for the testing of contact lens disinfectants (FDA Premarket Notification (510k) Guidance Document for Contact Lens Care Products, Appendix B, Apr. 1, 1997 and ISO/FDIS 14729: Ophthalmic optics-Contact lens care products-Microbiological requirements and test methods for products and regimens for hygienic management of contact lenses, January 2001). Contact lens disinfectants are also known as contact lens multi-purpose solutions when they are used for rinsing, cleaning, disinfection, storage and rewetting contact lenses. The five FDA/ISO specified test organisms are listed below: • Serratia marcescens, ATCC 13880 • Staphylococcus aureus, ATCC 6538 • Pseudomonas aeruginosa, ATCC 9027 • Candida albicans, ATCC 10231 • Fusarium solani, ATCC 36031
(§3) The specific test procedure for testing antimicrobial activity against the five FDA/ISO specified test organisms is as follows (C. albicans is provided as a specific example): Test samples are sterile-filtered through a 0.22 micron sterile filter into sterile plastic high density polyethylene bottles or plastic flasks. A 10-mL aliquot of test sample is aseptically transferred into a sterile polystyrene plastic test tube. Sterile saline (0.90 w/v % NaCl) with 0.05 w/v % Polysorbate 80 (SS+TWEEN) is transferred into a separate control tube. All samples and control are stored at 20-25° C. throughout the duration of the test.
(§4) Test cultures of Candida albicans, ATCC 10231 are prepared in the conventional manner. Candida albicans cultures are grown on agar slants from primary frozen, lyophilized or “Culti-loop®” cultures. Three mL of sterile 0.9% saline is used to gently dislodge culture growth from the agar surface. The resulting harvest is transferred to an appropriate screw cap test tube containing glass beads and vortexed for approximately one minute. The vortexed harvest is diluted as needed with sterile 0.9% saline to prepare the culture inoculum with a concentration of 1×10e8 CFU/mL. Fifty microliters of culture inoculum is added to 10.0 mL of each test sample and control, so that the final inoculum level is in the range of 1×10e5 to 1×10e6 CFU(colony forming units) per mL of Candida albicans, ATCC 10231. Each sample and control tube is vortexed briefly to disperse the inoculum. Contact time intervals for testing activity against Candida are typically 4 or 6 hours, to conform to the intended product label instructions for contact lens soak time.
(§5) Aerobic Plate Count Methods are performed in order to quantitate test samples for their levels of survivors. At appropriate assay times, 0.5 mL well-vortexed aliquots are removed from sample tubes and added to glass test tubes containing 4.5 mL Letheen Neutralizing Broth media (Berton, Dickinson and Company, Sparks, Md.). After a previously determined, validated neutralizing time period, these samples are diluted 10-fold through serial dilutions using glass test tubes containing 4.5 mL Letheen Neutralizing Broth media. Aliquots of 0.1 mL are removed from each dilution tube and spread-plate applied to agar plates containing Sabouraud Dextrose Agar (SAB)(Berton, Dickinson and Company, Sparks, Md.). 10^1 to 10^4 CFU/mL survivor levels are quantitated. […]

[2] = tested on: Fusarium solani, ATCC 36031; assay: Microbiology challenge test, log drop; assay type: cell-based
Description: as §1, §2, §3, §4, §5

[3] = tested on: Pseudomonas aeruginosa, ATCC 9027; assay: Microbiology challenge test, log drop; assay type: cell-based
Description: as §1, §2, §3, §4, §5

[4] = tested on: Serratia marcescens, ATCC 13880; assay: Microbiology challenge test, log drop; assay type: cell-based
Description: as §1, §2, §3, §4, §5

[5] = tested on: Staphylococcus aureus, ATCC 6538; assay: Microbiology challenge test, log drop; assay type: cell-based
Description: as §1, §2, §3, §4, §5

[6] = Contact lens uptake: content left in solution after shaking with lenses; assay type: physicochemical; settings: Myristylamine with TPGS 20 fold; for remaining content left in solution, Acuvue / remaining content left in solution, Purevision: 15 ml solution, closed system shaken 6 days at room temperature; for remaining content left in solution, Acuvue: 2 Acuvue lenses; for remaining content left in solution, Purevision: 2 Purevision lenses; for remaining content left in solution, Without Lens: 15 ml system without lenses, shaken 6 days at room temperature
Description: The results in Table 9A show the remaining quaternary ammonium and tertiary amine content left in solution after a 15 ml-solution-2 lenses closed system has been shaken for 6 days at room temperature. […] The control which was run for this experiment, which includes the remaining ingredients in the solutions referenced in Table 9A are listed in Table 9B. As one of ordinary skill in the art would realize, the less quaternary ammonium or tertiary amine content remaining in solution after the shaking period, the higher the absorption by the lenses.

[7] = tested on: five FDA/ISO specified test organisms; assay: Antimicrobial activity against the five-microbial panel, FDA/ISO disinfection criteria; assay type: cell-based; settings: result in words
Description: The following is the procedure by which various antimicrobial agents and solutions are tested for their ability to reduce microbial loads over short periods of time, typically 24 hours and less. The procedure is a basic microbiology challenge test, which involves the inoculation of test product aliquots with a known number of viable cells of several test organisms, and assay for the survivors at various time intervals. The results are used to calculate log drops at soak times and construct kill-curves (graphs of survivors versus time) if desired. Candida albicans, ATCC 10231, is one of five organisms specified per FDA and ISO/CLI tests for the testing of contact lens disinfectants (FDA Premarket Notification (510k) Guidance Document for Contact Lens Care Products, Appendix B, Apr. 1, 1997 and ISO/FDIS 14729: Ophthalmic optics-Contact lens care products-Microbiological requirements and test methods for products and regimens for hygienic management of contact lenses, January 2001). Contact lens disinfectants are also known as contact lens multi-purpose solutions when they are used for rinsing, cleaning, disinfection, storage and rewetting contact lenses. The five FDA/ISO specified test organisms are listed below: • Serratia marcescens, ATCC 13880 • Staphylococcus aureus, ATCC 6538 • Pseudomonas aeruginosa, ATCC 9027 • Candida albicans, ATCC 10231 • Fusarium solani, ATCC 36031 Candida albicans is often the most resistant of the five organisms to commonly used cationic antimicrobial agents in contact lens multi-purpose solutions. Thus, achievement of adequate antimicrobial activity against Candida is often the most difficult task to pass a particular disinfection efficacy standard. FDA and ISO guidelines specify two disinfection efficacy standards, indicated in the table below: Stand Alone Disinfectant (Primary) Criteria: [table] The specific test procedure for testing antimicrobial activity against the five FDA/ISO specified test organisms is as follows (C. albicans is provided as a specific example): Test samples are sterile-filtered through a 0.22 micron sterile filter into sterile plastic high density polyethylene bottles or plastic flasks. A 10-mL aliquot of test sample is aseptically transferred into a sterile polystyrene plastic test tube. Sterile saline (0.90 w/v % NaCl) with 0.05 w/v % Polysorbate 80 (SS+TWEEN) is transferred into a separate control tube. All samples and control are stored at 20-25° C. throughout the duration of the test.

[8] = Table 8B: Cetylamine 0.0001 % w/w with PHMB 0.00002, Pluronic F87 0.05, pH 7.7
[9] = Table 8B: Cetylamine 0.0001 % w/w, PHMB 0.00, Pluronic F87 0.05, pH 7.7
[10] = Table 8B: Cetylamine 0.000125 % w/w, PHMB 0.00, Pluronic F87 0.05, pH 7.7
[11] = Table 8B: Cetylamine 0.0003 % w/w, PHMB 0.00, Pluronic F87 0.05, pH 7.7
[12] = Cetylpyridinium Chloride 0.001 w/v %, TPGS 0, Tetronic 1307 0.05
[13] = Cetylpyridinium Chloride 0.001 w/v %, TPGS 0.025, Tetronic 1307 0.05
[14] = Table 2B: Dodecylamine 0.0003 % w/w, Tetronic 1307 0.05, pH 7.8
[15] = Table 2B: Dodecylamine 0.0005 % w/w, Tetronic 1307 0.05, pH 7.8

CCCCCCCCCCCCCCCCN [Cetylamine]
Log Drop [1, 8]: 1.51
Log Drop [1, 9]: 2.89
Log Drop [1, 10]: 1.97
Log Drop [1, 11]: 2.89
Log Drop [2, 8]: 1.14
Log Drop [2, 9]: 1.3
Log Drop [2, 10]: 2.76
Log Drop [2, 11]: 1.48
Log Drop [3, 8]: 4.43
Log Drop [3, 9]: 4.49
Log Drop [3, 10]: 3.95
Log Drop [3, 11]: 4.49
Log Drop [4, 8]: 4.18
Log Drop [4, 9]: 2.35
Log Drop [4, 10]: 3.76
Log Drop [4, 11]: 3.61
Log Drop [5, 8]: 4.81
Log Drop [5, 9]: 4.18
Log Drop [5, 10]: 4.81
Log Drop [5, 11]: 4.79

CCCCCCCCCCCCCCCC[n+]1ccccc1 [Cetylpyridinium Chloride, reference compound]
Log Drop [1, 12]: 4.41
Log Drop [1, 13]: 0.12
Log Drop [2, 12]: >4.08
Log Drop [2, 13]: 1.06
remaining content left in solution, Acuvue [6]: 3.3 ppm
remaining content left in solution, Purevision [6]: 1.3 ppm
remaining content left in solution, Without Lens [6]: 42.7 ppm

CCCCCCCCCCCCN [Dodecylamine, reference compound]
Log Drop [1, 14]: 0.91
Log Drop [1, 15]: 1.77
Log Drop [2, 14]: 0.09
Log Drop [2, 15]: 0.16
Log Drop [3, 14]: 1.4
Log Drop [3, 15]: 1.36
Log Drop [4, 14]: 0.46
Log Drop [4, 15]: 0.46
Log Drop [5, 14]: 0.34
Log Drop [5, 15]: 0.12
antimicrobial activity [7]: very weak antimicrobial activity
antimicrobial activity ([7]; listed as dodecylamine): not qualified as a disinfectant for contact lens care
remaining content left in solution, Acuvue [6]: 35.0 ppm
remaining content left in solution, Purevision [6]: 14.1 ppm
remaining content left in solution, Without Lens [6]: 44.4 ppm

CCCCCCCCCCCCCC(=O)NCCCN(C)C [Myristylamidopropyl-dimethylamine]
remaining content left in solution, Acuvue [6]: 18.2 ppm
remaining content left in solution, Purevision [6]: 4.7 ppm
remaining content left in solution, Without Lens [6]: 43.5 ppm
